# Source: a melting point compilation (Tetko et al.; mined from patent text by program, amines drawn as free bases though some values may be those of a salt)
row,Compound,melting point
1,COC(=O)c1cccc2c(C(F)(F)F)c(OC)ccc12,79 to 80 °C
2,COc1ccc(-c2ccc(C=CC(=O)O)s2)cc1C(C)(C)C,218 to 219 °C
3,O=C1NCCN1c1ccc(S(=O)(=O)Nc2ccc(Br)cc2)cc1,237 to 239 °C
4,CCCCCCc1cc2c(cc1C(=O)Oc1ccc(C(=O)OCc3ccccc3)cn1)C(C)(C)CCC2(C)C,94 to 95 °C
5,CN1CCN(C2(CN(C)C(=O)c3ccc(Cl)c(Cl)c3)CCCCC2)CC1,126 to 129 °C
6,CC(C)(C)OC(=O)NCC(NC(=O)OC(C)(C)C)C(=O)NCCNC(=O)OCc1ccccc1 (stereo not drawn),152 to 154 °C
7,COc1ccccc1N1CCN(CCCn2c(=O)[nH]c3sccc3c2=O)CC1,217 to 218 °C
8,CN1CCN(c2cc3c(cc2C(F)(F)F)[nH]c(=O)c2n[nH]c(=O)n23)CC1,> 300 °C
9,CN1CCN(c2c(F)c(NCc3ccccc3)c3nc(CC(N)=O)n(C4CC4)c3c2F)CC1,157 to 159 °C
10,CC(=O)N[C@@H]1c2cc(C#N)ccc2CC(C)(C)[C@H]1O (relative stereo),203 to 205 °C
11,CCC(C(=O)OC1CC(=O)NC1=O)c1ccccc1 (stereo not drawn),96.5 to 97.5 °C
12,CCCN(CC)C(=O)c1ccc(CN2C(=O)C(c3ccccc3Cl)(N(C)C)c3cc(Cl)ccc32)cc1 (stereo not drawn),208 °C
13,CSc1cc(C(=O)c2cnoc2C2CC2)ccc1C,85.5 to 86.1 °C
14,COc1ccc(-c2nc3ccc(C(C)(C)CNC=O)cc3[nH]2)cn1,217 to 221 °C
15,O=C(Nc1ccc(S(=O)(=O)c2ccccc2)cc1)N[C@@H](Cc1ccc(NC(=O)c2c(Cl)cccc2Cl)cc1)C(=O)O,222 °C
16,COc1nc2cc(Cl)cc(Cl)c2cc1Br,135 to 138 °C
17,COc1ccc(C)cc1NC(=O)Nc1ccc(N2CCN(C(=O)Nc3ccc(OCCO)cc3C)CC2)nc1,189 to 190 °C
18,CCOC(=O)c1ccc(C(F)(F)F)cc1N,42 to 43 °C
19,CCCCCCN1CCC(n2nc(-c3c(-c4ccccc4)nn4ccccc34)ccc2=O)CC1,106 °C

row,Compound,melting point
1,CC(C)c1cc(C(=O)Nc2cccc(C(=O)O)c2)oc1C(C)C,244 to 245 °C
2,Cn1ccnc1Sc1ccc(Nc2c(C#N)cnc3cc(-c4csc(CN5CCOCC5)c4)ccc23)cc1Cl,110 to 113 °C
3,COc1ccc(S(=O)(=O)C(C)(Cc2ccc(-c3ccccc3)cc2)C(=O)NO)cc1 (stereo not drawn),177 °C
4,Cc1ccccc1-c1ccc(C(=O)N2Cc3cccn3Cc3ccccc32)cc1C,145 to 148 °C
5,Cc1ccc(NC(=O)c2ccc(C(=O)Nc3ccccc3NC(=O)OC(C)(C)C)s2)cc1Nc1nccc(-c2cccnc2)n1,206 to 208 °C
6,CCCCc1oc2ccccc2c1-c1ncc(-c2ccc3c(Br)c(O)ccc3c2)o1,172 to 174 °C
7,NC(=O)Cn1ccc2ccccc21,177 to 179 °C
8,CC(CCC(=O)O)C(=O)NC1(C(=O)O)CCCC1 (stereo not drawn),170 to 172 °C
9,Cn1cncc1CC(=O)c1ccc(Br)cc1,109 °C
10,O=C(O)c1cccc2cc3ccccc3nc12,202 to 204 °C
11,Clc1nccc(Oc2ccc3[nH]ccc3c2)n1,169 to 176 °C
12,N#Cc1ccc(N2C(=N)C3(CCCC3)NC2=O)cc1C(F)(F)F,212 to 213 °C
13,CNC(=O)Nc1ccc(-c2ccncc2)c(C)n1,213 to 214 °C
14,Cc1ccc(-c2nc(NC(=O)OCC[Si](C)(C)C)cs2)cc1,108 to 109 °C
15,c1ccc(C(NC23CC4CC(C2)CC(OCc2ccc(-c5nc6ccccc6o5)cc2)(C4)C3)(c2ccccc2)c2ccccc2)cc1,174 to 177 °C
16,CCc1nc2cc(Nc3nccc(-c4ccc(N5CCN(CC)CC5)nc4)n3)ccc2o1,174 to 176 °C
17,CCOC(=O)CN1Cc2c(C)cccc2NC1=O,184 to 185 °C
18,CC(C)(COS(N)(=O)=O)Oc1ccc(Cl)cc1,76 to 79 °C
19,COCCOCOc1c(C(C)(C)C)cc(-c2ccc(C#N)c(C#N)c2)cc1C(C)(C)C,130 to 131 °C
